Data published in US6004957A, “Sulfonamide inhibitors of aspartyl protease” (Vertex Pharmaceuticals, Incorporated, priority 1998, dated 1999).
Read-outs that look alike come from different tables or passages of the source.

Columns and labels:
HIV-1 protease = HIV-1 protease (Human immunodeficiency virus type 1 group M subtype B, UniProt P04585); experiment: biochemical; conditions: Table VII
Description: We measured the inhibition constants of the compounds listed in Table VII against HIV-1 protease using the above-cited method of Pennington et al.

[1] = test system: HIVIIIb in CCRM-CEM cells; experiment: Anti-viral potency in CCRM-CEM cells acutely infected with HIVIIIb (method of Meek et al.), extracellular p24 antigen; format: cell-based, HIV-1; conditions: Table VIII, read-out: IC90 Range
Summary of the method: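 Compounds in DMSO were added to CCRM-CEM cells (CD4+ human T-cell lymphoma) acutely infected with HIVIIIb following Meek et al. Inhibition of viral replication was determined from extracellular p24 antigen concentration measured by enzyme immunoassay.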

[2] = Human immunodeficiency virus 1, HIV replication

Compound | Ki (HIV-1 protease) [nM] | IC90 [1, 2] [nM] | IC90 ([1]; HIV replication) [nM]
CC(C)CN(C[C@@H](O)[C@H](Cc1ccccc1)NC(=O)OC(C)(C)C)S(=O)(=O)c1ccc(N)c([N+](=O)[O-])c1 [Compound 62] | 72 |  | 
CC(C)CN(C[C@@H](O)[C@H](Cc1ccccc1)NC(=O)OC(C)(C)C)S(=O)(=O)N(C)C [Compound 68] | 120 |  | 
CC(C)N(C[C@@H](O)[C@H](Cc1ccccc1)NC(=O)OC(C)(C)C)S(=O)(=O)c1ccc(F)cc1 [Compound 75] | 290 |  | 
CC(=O)Nc1ccc(S(=O)(=O)N(CC(C)C)C[C@@H](O)[C@H](Cc2ccccc2)NC(=O)OCC2CCOC2)cc1 (some centres unmarked) [Compound 92] | 20 |  | 
O=C(N[C@@H](Cc1ccccc1)[C@H](O)CN(CC1CCCC1)S(=O)(=O)c1ccc(Cl)c(Cl)c1)O[C@H]1CCOC1 [Compound 183, 3,4-Dichloro-N-cyclopentylmethyl-N-((2 syn,3S)-2-hydroxy-4-phenyl-3-((S)-tetrahydrofuran-3-yloxycarbonylamino)-butyl)-benzenesulfonamide] |  | 101 to 1000 | 
CC[C@H](C)[C@H](NC(=O)OCc1ccccc1)C(=O)N[C@@H](Cc1ccccc1)[C@H](O)CN(CC(C)C)S(=O)(=O)c1ccc(F)c(NC(C)=O)c1 [Compound 187, Benzyloxycarbonyl-(L)-isoleucine-N-(5-((3-amino-(2 syn,3S)-2-hydroxy-4-phenyl-butyl)-isobutyl-sulfamoyl)-2-fluoro-phenyl)-acetamide] |  | 101 to 1000 | 
CC[C@H](C)[C@H](NC(=O)c1cnc2ccccc2n1)C(=O)N[C@@H](Cc1ccccc1)[C@H](O)CN(CC(C)C)S(=O)(=O)c1ccc(F)c(NC(C)=O)c1 [Compound 188] |  | 1000 to 10000 | 
CC(C)CN(C[C@H](O)[C@H](Cc1ccccc1)NC(=O)[C@H](CC(N)=O)NC(=O)c1ccc2ccccc2n1)S(=O)(=O)c1cccc2nonc12 [Compound 192] | 67 | 1000 to 10000 | 
COc1ccc(S(=O)(=O)N(CC2CCCC2)C[C@@H](O)[C@H](CC2CCCCC2)NC(=O)O[C@H]2CCOC2)cc1 [Compound 195, N-((2 syn,3S)-4-Cyclohexyl-2-hydroxy-3-((S)-tetrahydrofuran-3-yloxycarbonylamino)-butyl)-N-cyclopentylmethyl-4-methoxy-benzenesulfonamide] |  | < 100 | 
(S)-N-1-(3-((3-Acetylamino-4-fluoro-benzenesulfonyl)-benzyl-amino)-(1S,2 syn)-1-benzyl-2-hydroxy-propyl)-2-((quinoline-2-carbonyl)-amino)-succinamide and (S)-N-1-(3-((4-Acetylamino-3-fluoro-benzenesulfonyl)-benzyl-amino)-(1S,2 syn)-1-benzyl-2-hydroxy-propyl)-2-((quinoline-2-carbonyl)-amino)-succinamide [Compound 2] |  |  | 101 to 1000

Further lines, with some results ahead:

Ki (HIV-1 protease) [nM] | IC90 [1, 2] [nM] | Compound | IC90 ([1]; HIV replication) [nM]
0.1 | < 100 | CC(C)CN(C[C@@H](O)[C@H](Cc1ccccc1)NC(=O)[C@H](CC(N)=O)NC(=O)c1ccc2ccccc2n1)S(=O)(=O)c1ccc(-c2ccccn2)s1 [Compound 12, (S)-N-1-(1-(S)-Benzyl-2-(syn)-hydroxyl-3-(isobutyl-(5-pyridin-2-yl-thiophene-2-sulfonyl)-amino)-propyl)-2-((quinoline-2-carbonyl)-amino)-succinamide] | 
0.1 | 101 to 1000 | CC(C)CN(C[C@@H](O)[C@H](Cc1ccccc1)NC(=O)[C@@H](NC(=O)OCc1ccccn1)C(C)C)S(=O)(=O)c1ccc(F)cc1 [Compound 26] | 
11 | 1000 to 10000 | CC(C)CN(C[C@@H](O)[C@H](Cc1ccccc1)NC(=O)OC(C)(C)C)S(=O)(=O)c1cccc(F)c1 [Compound 50] | 
0.4 | 101 to 1000 | CC(C)CN(C[C@@H](O)[C@H](Cc1ccccc1)NC(=O)OC1CCOC1)S(=O)(=O)c1ccc(F)cc1 (stereo partly drawn) [Compound 52, 4-Fluoro-N-((2 syn,3S)-2-hydroxy-4-phenyl-3-((R)-tetrahydrofuran-3-yloxycarbonylamino)-butyl)-N-isobutyl-benzenesulfonamide and 4-Fluoro-N-((2 syn,3S)-2-hydroxy-4-phenyl-3-((R)-tetrahydrofuran-3-yloxycarbonylamino)-butyl)-N-isobutyl-benzenesulfonamide] | 
10 | 1000 to 10000 | C=CCOC(=O)N[C@@H](Cc1ccccc1)[C@H](O)CN(CC(C)C)S(=O)(=O)c1ccc(F)c(NC(C)=O)c1 [Compound 87] | 
2.5 | 101 to 1000 | CC(C)CN(C[C@@H](O)[C@H](Cc1ccccc1)NC(=O)OCC1CCOC1)S(=O)(=O)c1ccc(F)cc1 (stereo partly drawn) [Compound 97, 4-Fluoro-N-(2 syn,3S)-2-hydroxy-4-phenyl-3-((tetrahydro-furan-(R)-3-ylmethoxycarbonylamino)-butyl)-N-isobutyl-benzenesulfonamide and 4-Fluoro-N-(2 syn,3S)-2-hydroxy-4-phenyl-3-((tetrahydro-furan-(S)-3-ylmethoxycarbonylamino)-butyl)-N-isobutyl-benzenesulfonamide] | 
2 | 1000 to 10000 | CC(C)CN(C[C@@H](O)[C@H](Cc1ccccc1)NC(=O)OCc1ccccn1)S(=O)(=O)c1ccc(F)c(F)c1 [Compound 108] | 
< 0.1 |  | O=C(N[C@@H](Cc1ccccc1)[C@H](O)CN(CC1CCCC1)S(=O)(=O)c1ccc2c(c1)OCO2)O[C@H]1CCOC1 [Compound 176] | 
